In PMC3805977 (Scientific Reports, 2013):

Test system: HIV-1
Assay: HIV-1 inhibition assay, isolates not separated
Format: cell-based
Conditions: across HIV-1 clades; effect augmented with streptavidin conjugation

## SSCSVRSSCRLYYSC
  HIV-1 inhibitory activity, in words: did not show any HIV-1 inhibition
